Results from US20200031778A1, “NOVEL 5-SUBSTITUTED IMIDAZOLYLMETHYL DERIVATIVES” (Bayer CropScience Aktiengesellschaft, priority 2016, published 2020).

assay: Log P by HPLC on reversed phase columns (EEC directive 79/831 Annex V.A8; methods [a], [b], [c]); assay type: physicochemical; settings: not given
Procedure, shortened: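 Log P derived from retention times, interpolated linearly between bracketing straight-chain alkan-2-ones (3–16 carbons) of known Log P. Eluents ran acetonitrile 10% to 95% against water with 0.1% formic acid ([a], acidic), 0.001 M ammonium acetate ([b], neutral) or 0.1% phosphoric acid ([c], acidic); UV read-out.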

| SMILES | LogP |
| --- | --- |
| CC(O)(Cn1cncc1C#N)c1ccc(Oc2ccc(Cl)cc2)cc1Br (stereo not drawn) [I-216] | 3.50^[a] |
| N#Cc1cncn1CC(O)(c1cc(Br)cc(Br)c1)C1(F)CC1 (stereo not drawn) [I-469] | 2.82^[a] |
| N#Cc1cncn1CC(O)(c1cc(Cl)cc(Br)c1)C1(F)CC1 (stereo not drawn) [I-536] | 2.76^[a] |
| N#Cc1cncn1CC(O)(CC1CC1)c1cc(F)cc(Br)c1 (stereo not drawn) [I-532] | 2.65^[a] |
| OC(Cn1cncc1Cl)c1ccc(Oc2ccc(C(F)(F)F)cc2)cc1 (stereo not drawn) [I-13] | 2.37^[a] |
| CCCCC(O)(Cn1cncc1C#N)c1ccc(F)cc1F (stereo not drawn) [I-262] | 2.73^[a] |
| CCCC(C)C=CC(O)(Cn1cncc1C#N)C1(Cl)CC1 (stereo not drawn) [I-689] | 3.41^[a] |
| COCOC(Cn1cncc1C#N)c1ccc(Oc2ccc(Cl)cc2)cc1C(F)(F)F (stereo not drawn) [I-82] | 4.03^[a] |
| N#Cc1cncn1CC(O)(c1cc(Cl)c(Cl)cc1Cl)C1(Cl)CC1 (stereo not drawn) [I-562] | 2.98^[a] |
| N#Cc1cncn1CC(O)(c1ccc(Cl)cc1)C1CC1 (stereo not drawn) [I-305] | 2.27^[a] |
| N#Cc1cncn1CC(O)(c1ccc(F)cc1C(F)(F)F)C1(F)CC1 (stereo not drawn) [I-382] | 2.46^[a] |
| N#Cc1cncn1CC(O)(c1cnc(Cl)cc1Br)C1(F)CC1 (stereo not drawn) [I-560] | 1.98^[a] |
| CC(O)(Cn1cncc1C#N)c1cnc(Oc2ccc(C(F)(F)F)cc2)cc1Cl (stereo not drawn) [I-254] | 3.21^[a] |
| CCC(C)C(O)(Cn1cncc1C#N)c1ccc(Cl)cc1 (single isomer, unassigned) [I-325] | 2.73^[a] |
| Cc1ccc(C#CC(O)(Cn2cncc2C#N)C2(Cl)CC2)cc1 (stereo not drawn) [I-293] | 2.82^[a] |
| CC(C)(C)C(O)(Cn1cncc1C#N)c1ccc(Cl)cn1 (stereo not drawn) [I-528] | 2.73^[a] |
| N#Cc1cncn1CC(O)(c1ccc(C2CC2)cc1Cl)C1CC1 (stereo not drawn) [I-406] | 2.92^[a] |
| N#Cc1cncn1CC(O)(CC1CC1)c1cc(F)c(F)c(F)c1 (stereo not drawn) [I-501] | 2.51^[a] |
| CC(O)(Cn1cncc1Cl)c1ccc(Oc2ccc(C(F)(F)F)cc2)cc1 (stereo not drawn) [I-161] | 2.51^[a] |
| CC(O)(Cn1cncc1C#N)c1ccc(Oc2ccc(Br)cc2)cc1Br (stereo not drawn) [I-219] | 3.73^[a] |
| N#Cc1cncn1CC(O)(c1ccc(F)c(Cl)c1Cl)C1(F)CC1 (stereo not drawn) [I-624] | 2.45^[a] |
| CC(O)(Cn1cncc1Cl)c1ccc(Oc2ccc(I)cc2)cc1Cl (stereo not drawn) [I-166] | 3.04^[a] |

| SMILES | LogP |
| --- | --- |
| CCOC(Cn1cncc1Br)c1ccc(Oc2ccc(Cl)cc2)cc1Br (stereo not drawn) [I-56] | 3.99^[a] |
| C[Si](C)(C#CC(O)(Cn1cncc1C#N)C1(Cl)CC1)c1ccccc1 (stereo not drawn) [I-594] | 3.31^[a] |
| CC(C)(C)CC(O)(Cn1cncc1C#N)c1ccc(OC(F)(F)F)cc1 (stereo not drawn) [I-275] | 3.50^[a] |
| N#Cc1cncn1CC(O)(C#CC1CC1)C1(Cl)CC1 (stereo not drawn) [I-692] | 2.11^[a] |
| OC(Cn1cncc1Br)c1ccc(Oc2ccc(Br)cc2)cc1Br (stereo not drawn) [I-44] | 2.78^[a] |
| CC(C)(C)CC(O)(Cn1cncc1C#N)c1ccccc1Cl (stereo not drawn) [I-309] | 3.17^[a] |
| CC(C)(C)C(O)(Cn1cncc1C#N)c1ccc(F)c(Br)c1 (stereo not drawn) [I-509] | 2.97^[a] |
| OC(Cn1cncc1Cl)c1ccc(Oc2ccc(C(F)(F)F)cc2)cc1Cl (stereo not drawn) [I-09] | 2.82^[a] |
| C#Cc1ccc(C(O)(Cn2cncc2C#N)C2(F)CC2)c(F)c1 (stereo not drawn) [I-647] | 2.21^[a] |
| N#Cc1cncn1CC(O)c1cnc(Oc2ccc(C(F)(F)F)cc2)cc1C(F)(F)F (stereo not drawn) [I-111] | 3.15^[a] |
| CC(O)(Cn1cncc1Br)c1ccc(Oc2ccc(Br)cc2)cc1Cl (stereo not drawn) [1-174] | 2.96^[a] |
| OC(Cn1cncc1Cl)c1ccc(Oc2ccc(Br)cc2)cc1C(F)(F)F (stereo not drawn) [I-20] | 2.96^[a] |
| CCCC#Cc1ccc(C(O)(Cn2cncc2C#N)C2(F)CC2)c(F)c1 (stereo not drawn) [I-645] | 3.29^[a] |
| C/C=C(\C)C(O)(Cn1cncc1C#N)c1ccc(Cl)cc1F (stereo not drawn) [I-397] | 2.73^[a] |
| N#Cc1cncn1CC(O)(CC1CC1)c1cc(F)cc(Cl)c1 (stereo not drawn) [I-497] | 2.54^[a] |
| N#Cc1cncn1CC(O)c1ccc(Oc2ccc(Cl)cc2)nc1C(F)(F)F (stereo not drawn) [I-124] | 3.15^[a] |
| CC(O)(Cn1cncc1Cl)c1ccc(Oc2ccc(C(F)(F)F)cc2)cc1Cl (stereo not drawn) [I-159] | 3.02^[a] |
| CC(C)(C)CC(O)(Cn1cncc1C#N)c1cccc(F)c1Cl (stereo not drawn) [I-368] | 3.15^[a] |
| OC(Cn1cncc1F)c1ccc(Oc2ccc(Cl)cc2)cc1Cl (stereo not drawn) [I-46] | 2.28^[a] |
| CC(C)(C)CC(C)(O)Cn1cncc1C#N (stereo not drawn) [I-239] | 1.92^[a] |
| C#Cc1ccc(C(O)(Cn2cncc2C#N)C2(Cl)CC2)c(Cl)c1 (stereo not drawn) [I-370] | 2.52^[a] |
| N#Cc1cncn1CC(O)(c1ccc(F)cc1Cl)C1(F)CC1 (stereo not drawn) [I-349] | 2.22^[a] |

| SMILES | LogP |
| --- | --- |
| CC(O)(Cn1cncc1Cl)c1ccc(Oc2ccc(Br)cc2)cc1C(F)(F)F (stereo not drawn) [I-169] | 2.90^[a] |
| N#Cc1cncn1CC(O)c1ccc(Cl)cc1 (stereo not drawn) [I-112] | 1.53^[a] |
| CCCCCC(O)(Cn1cncc1C#N)c1ccc(Cl)cc1 (stereo not drawn) [I-286] | 3.10^[a] |
| OC(Cn1cncc1Cl)c1ccc(Oc2cccnc2)cc1Cl (stereo not drawn) [I-78] | 1.13^[a] |
| N#Cc1cncn1CC(O)(CC1CCCCC1)c1ccc(F)cc1Br (stereo not drawn) [I-465] | 3.78^[a] |
| N#Cc1cncn1CC(O)(c1ccc(-c2ccccc2)cc1)C1(Cl)CC1 (stereo not drawn) [I-280] | 2.94^[a] |
| CC(O)(Cn1cncc1Cl)c1ccc(Oc2ccc(Cl)cc2)cc1Br (stereo not drawn) [I-171] | 2.82^[a] |
| Cc1ccc(Oc2ccc(C(O)Cn3cncc3Cl)c(Cl)c2)cc1 (stereo not drawn) [I-02] | 2.50^[a] |
| N#Cc1cncn1CC(O)(c1ccc(F)cc1Cl)C1(Cl)CC1 (stereo not drawn) [I-236] | 2.35^[a] |
| N#Cc1cncn1CC(O)(CCCC1CCCCC1)C1CCC1 (stereo not drawn) [I-665] | 4.16^[a] |
| N#Cc1cncn1CC(O)(c1cc(Cl)cc(Cl)c1)C1(F)CC1 (stereo not drawn) [I-472] | 2.67^[a] |
| N#Cc1cncn1CC(O)c1ccccc1F (stereo not drawn) [I-139] | 1.31^[a] |
| N#Cc1cncn1CC(O)(c1ccc(F)nc1F)C1(Cl)CC1 (stereo not drawn) [I-550] | 1.98^[a] |
| N#Cc1cncn1CC(O)(c1ccc(Cl)cc1F)C1CCC1 (stereo not drawn) [I-448] | 2.86^[a] |
| N#Cc1cncn1CC(O)(c1cc(Cl)ccc1Cl)C1(Cl)CC1 (stereo not drawn) [I-336] | 2.56^[a] |
| CCCCC(O)(Cn1cncc1C#N)c1ccc(F)cc1 (stereo not drawn) [I-228] | 2.47^[a] |
| N#Cc1cncn1CC(O)(c1ccc(C#CC2CCCC2)cc1F)C1(F)CC1 (stereo not drawn) [I-644] | 3.74^[a] |
| CC(O)(Cn1cncc1F)c1cnc(Oc2ccc(Cl)cc2)cc1C(F)(F)F (stereo not drawn) [I-240] | 2.30^[a] |
| CC(O)(Cn1cncc1C#N)c1ccc(Oc2ccc(Cl)cc2)cc1F (stereo not drawn) [I-188] | 3.20^[a] |
| CC(C)(C)C#Cc1ccc(C(O)(Cn2cncc2C#N)C2(F)CC2)c(Cl)c1 (stereo not drawn) [I-642] | 3.83^[a] |
| N#Cc1cncn1CC(O)(c1ccc(Br)cc1Cl)C1(Cl)CC1 (stereo not drawn) [I-648] | 2.70^[a] |
| N#Cc1cncn1CC(O)(c1ccc(F)cc1Br)C1(Cl)CC1 (stereo not drawn) [I-387] | 2.48^[a] |

| SMILES | LogP |
| --- | --- |
| N#Cc1cncn1CC(O)(c1ccc(Cl)c(Cl)c1F)C1(Cl)CC1 (stereo not drawn) [I-630] | 2.76^[a] |
| CC(C)(C)C(O)(C#CCC1CCCCC1)Cn1cncc1C#N (stereo not drawn) [I-541] | 3.72^[a] |
| COC(C)(Cn1cncc1Br)c1ccc(Oc2ccc(Br)cc2)cc1C(F)(F)F (stereo not drawn) [I-200] | 3.89^[a] |
| N#Cc1cncn1CC(O)(c1ccc(C#CC2CC2)cc1Cl)C1(Cl)CC1 (stereo not drawn) [I-361] | 3.25^[a] |
| N#Cc1cncn1CC(O)(C#CC1CCCC1)CC1CC1 (stereo not drawn) [I-452] | 2.62^[a] |
| COC(=O)COC(Cn1cncc1C#N)c1ccc(Oc2ccc(Br)cc2)cc1C(F)(F)F (stereo not drawn) [I-94] | 3.99^[a] |
| C[Si](C)(C)CC(O)(Cn1cncc1C#N)c1ccc(Cl)cc1 (stereo not drawn) [I-224] | 3.35^[a] |
| N#Cc1cncn1CC(O)(c1ccccc1C(F)(F)F)C1(Cl)CC1 (stereo not drawn) [I-344] | 2.35^[a] |
| OC(Cn1cncc1Cl)c1ccc(Oc2ccc(Cl)nc2)cc1C(F)(F)F (stereo not drawn) [I-19] | 2.14^[a] |
| N#Cc1cncn1CC(O)c1ccc(Oc2ccc(Br)cc2)cc1F (stereo not drawn) [I-48] | 3.04^[a] |
| N#Cc1cncn1CC(O)(CC1CC1)c1cc(Cl)c(F)c(Cl)c1 (stereo not drawn) [I-493] | 2.95^[a] |
| CC(O)(Cn1cncc1C#N)c1ccc(Oc2ccc(Br)cc2)cc1F (stereo not drawn) [I-191] | 3.29^[a] |
| N#Cc1cncn1CC(O)(CC1CC1)c1cc(Cl)cc(Cl)c1 (stereo not drawn) [I-503] | 2.28^[a] |
| CCCOC(Cn1cncc1C#N)c1ccc(Oc2ccc(Cl)cc2)cc1C(F)(F)F (stereo not drawn) [I-85] | 4.92^[a] |
| N#Cc1cncn1CC(O)c1ccc(Oc2ccc(I)cc2)cc1F (stereo not drawn) [I-49] | 3.24^[a] |
| N#Cc1cncn1CC(O)(c1cc(F)c(Br)cc1Cl)C1(F)CC1 (stereo not drawn) [I-682] | 2.63^[a] |
| N#Cc1cncn1CC(O)(c1c(F)ccc(F)c1F)C1(F)CC1 (stereo not drawn) [I-590] | 2.07^[a] |
| COC(C)(Cn1cncc1Br)c1ccc(Oc2ccc(Cl)cc2)cc1C(F)(F)F (stereo not drawn) [I-201] | 3.76^[a] |
| N#Cc1cncn1CC(O)c1ccc(Oc2ccc(OC(F)(F)F)cc2)nc1C(F)(F)F (stereo not drawn) [I-137] | 3.12^[a] |
| CC(O)(Cn1cncc1Cl)c1ccc(Oc2ccc(C(F)(F)F)cc2)c(Br)c1 (stereo not drawn) [I-160] | 2.78^[a] |
| N#Cc1cncn1CC(O)(CCCC1CCCCC1)C1CC1 (stereo not drawn) [I-661] | 3.83^[a] |
| N#Cc1cncn1CC(O)(c1c(F)cc(F)cc1Cl)C1(F)CC1 (stereo not drawn) [I-574] | 2.23^[a] |

same assay, conditions: HPLC on reversed phase columns, method [a]

| SMILES | chromatographic logP |
| --- | --- |
| C[Si](C)(C)C#CCOc1ccc(C(O)(Cn2cncc2C#N)C2(F)CC2)c(F)c1 (stereo not drawn) [I-415, 3-[2-(1-fluorocyclopropyl)-2-[2-fluoro-4-(3-trimethylsilylprop-2-ynoxy)phenyl]-2-hydroxy-ethyl]imidazole-4-carbonitrile] | 3.68 |

same assay, conditions: reversed phase HPLC column; method [a]: LC-UV, acidic range, 0.1% formic acid in water and acetonitrile as eluent (linear gradient from 10% to 95% acetonitrile)

| SMILES | chromatographic logP |
| --- | --- |
| O=Cc1ccc(Oc2ccc(C(=O)Cn3cncc3F)c(Cl)n2)cc1 [IX-85] | 1.59 |
| N#Cc1cncn1CC(=O)c1ccc(Cl)s1 [IX-125] | 1.88 |
| N#Cc1cncn1CC(=O)c1ccc(F)cc1F [IX-87] | 1.75 |
| O=C(Cn1cncc1Br)c1ccc(F)cc1F [IX-121] | 1.32 |
